Test results published in patent US20240002354A1, “ANTIDIABETIC COMPOUNDS AND COMPOSITIONS” (REZUBIO PHARMACEUTICALS CO., LTD, priority 2020, published 2024).

target: T1, GPR40 (Homo sapiens, UniProt O14842); assay: IP1 accumulation assay (Cisbio IP-One HTRF) in HEK293 cells stably expressing GPR40; assay type: cell-based; settings: HEK293 cells stably expressing GPR40, 37° C. for 2 hours, % Effect relative to AMG-1638 positive control
T1 construct: expressed in transfected cells
Experimental: IP1 accumulation assay was used to evaluate the potency of compounds. HEK293 cells stably expressing GPR40 were cultured in 5% CO2 incubator (ThermoFisher) in maintenance media (Dulbecco's modified Eagle's medium with 4.5 g/L of glucose, 10% fetal bovine serum, 100 μg/mL Hygromycin, and Penicillin (100 U/mL)/Streptomycin (100 μg/mL)) till 100% confluency. Cells were harvested freshly, spun down at 300×g for 5 min, and resuspended in pre-warmed 1× stimulant buffer from Cisbio IP-One HTRF Detection kit (Cisbio). Cell density was adjusted to 2.0×10^6 cells/mL. DMSO was used as blank control and AMG-1638 (CAS #: 1142214-62-7) as positive control. Compounds were prepared at 10 mM in DMSO and 5 nL of 3× serially diluted compounds (10 concentrations) were added to each well of the 384-LDV assay plate (Corning) by using ECHO 550 (Labcyte). Five μL of cells in suspension were transferred into each well by using Multidrop Combi Reagent Dispenser (ThermoFisher). Assay plate was then sealed and incubated at 37° C. for 2 hours. IP-d2 reagent and anti-IP1 reagent were prepared following the manual (Cisbio). Five μL of IP1-d2 and then 5 μL of anti-IP1 antibody was added to each well sequentially. Assay plate was incubated at room temperature for 60 min and then read at 665 nm/615 nm on an Envision plate reader (PerkinElmer). The ratio of values obtained at 665 nm and 615 nm was used for calculation of IP1 accumulation: % Effect=(Ratiosample−Ratioblank)/(RatioAMG-1638−Ratioblank)×100. Dose curve was fitted and EC50 of each compound was calculated by using XLFit.

T1 sequence (O14842 whole entry): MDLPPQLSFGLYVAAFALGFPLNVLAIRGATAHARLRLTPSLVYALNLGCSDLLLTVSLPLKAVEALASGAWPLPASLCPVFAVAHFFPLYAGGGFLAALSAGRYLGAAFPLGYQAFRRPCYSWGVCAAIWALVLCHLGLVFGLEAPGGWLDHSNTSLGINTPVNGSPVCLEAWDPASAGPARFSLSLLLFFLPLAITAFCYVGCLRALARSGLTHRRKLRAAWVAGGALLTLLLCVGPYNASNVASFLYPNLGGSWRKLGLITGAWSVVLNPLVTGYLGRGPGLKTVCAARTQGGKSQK

| EC50 [nM] | Compound |
| --- | --- |
| 1 to 50 | C#CC(C)(C)c1cc(COc2cccc([C@@H](CC(=O)O)C3CC3)c2)ccc1-c1cc(OC)ccc1F [Compound No. 217, (S)-3-cyclopropyl-3-(3-((2′-fluoro-5′-methoxy-2-(2-methylbut-3-yn-2-yl)-[1,1′-biphenyl]-4-yl)methoxy)phenyl)propanoic acid] |
| 1 to 50 | CCCCCCc1cn(Cc2ccc(OC(F)(F)F)c(CN3CCC([C@H]4CCc5ccc([C@H](C6CC6)[C@H](C)C(=O)O)cc5O4)CC3)c2)nn1 [compound 195, (2S,3R)-3-cyclopropyl-3-((R)-2-(1-(5-((4-hexyl-1H-1,2,3-triazol-1-yl)methyl)-2-(trifluoro-methoxy)benzyl)piperidin-4-yl)chroman-7-yl)-2-methylpropanoic acid] |
| 50 to 250 | CCCCCCn1cc(COc2ccc(OC(F)(F)F)c(CN3CCC([C@H]4CCc5ccc([C@H](C6CC6)[C@H](C)C(=O)O)cc5O4)CC3)c2)nn1 [compound 190, (2S,3R)-3-cyclopropyl-3-((R)-2-(1-(5-((1-hexyl-1H-1,2,3-triazol-4-yl)methoxy)-2-(trifluoro-methoxy)benzyl)piperidin-4-yl)chroman-7-yl)-2-methylpropanoic acid] |
| 1000 to 5000 | COc1ccc(F)c(-c2ccc(COc3cccc([C@@H](CC(=O)O)C4CC4)c3)cc2C(C)(C)n2cc(CCCCCCCCCCCCCCCCCC(=O)O)nn2)c1 [Compound No. 220, (S)-18-(1-(2-(4-((3-(2-carboxy-1-cyclopropylethyl)phenoxy)methyl)-2′-fluoro-5′-methoxy-[1,1′-biphenyl]-2-yl)propan-2-yl)-1H-1,2,3-triazol-4-yl)octadecanoic acid] |
| 1 to 50 | C#Cc1ccc(OC(F)(F)F)c(CN2CCC([C@H]3CCc4ccc([C@H](C5CC5)[C@H](C)C(=O)O)cc4O3)CC2)c1 [compound 193, (2S,3R)-3-cyclopropyl-3-((R)-2-(1-(5-ethynyl-2-(trifluoromethoxy)benzyl)piperidin-4-yl)-chroman-7-yl)-2-methylpropanoic acid] |
| 1 to 50 | COc1ccc(F)c(-c2ccc(COc3cccc([C@@H](CC(=O)O)C4CC4)c3)cc2C(C)(C)CN=[N+]=[N-])c1 [Compound No. 224] |
| 1 to 50 | CCCCCCc1cn(-c2ccc(OC(F)(F)F)c(CN3CCC([C@H]4CCc5ccc([C@H](C6CC6)[C@H](C)C(=O)O)cc5O4)CC3)c2)nn1 [compound 188, (2S,3R)-3-cyclopropyl-3-((R)-2-(1-(5-(4-hexyl-1H-1,2,3-triazol-1-yl)-2-(trifluoro-methoxy)benzyl)piperidin-4-yl)chroman-7-yl)-2-methylpropanoic acid] |
| 50 to 250 | C#CCOCC(C)(C)c1cc(COc2cccc([C@@H](CC(=O)O)C3CC3)c2)ccc1-c1cc(OC)ccc1F [Compound No. 228, (S)-3-cyclopropyl-3-(3-((2′-fluoro-5′-methoxy-2-(2-methyl-1-(prop-2-yn-1-yloxy)propan-2-yl)-[1,1′-biphenyl]-4-yl)methoxy)phenyl)propanoic acid] |
| 250 to 1000 | COc1ccc(F)c(-c2ccc(COc3cccc([C@@H](CC(=O)O)C4CC4)c3)cc2C(C)(C)COCc2cn(CCCCCCCCCCCCCCCCCC(=O)O)nn2)c1 [Compound No. 230] |
| 50 to 250 | CCCCCCCCCCc1ccc(OC(F)(F)F)c(CN2CCC([C@H]3CCc4ccc([C@H](C5CC5)[C@H](C)C(=O)O)cc4O3)CC2)c1 [compound 205, (2S,3R)-3-cyclopropyl-3-((R)-2-(1-(5-decyl-2-(trifluoromethoxy)benzyl)piperidin-4-yl)chroman-7-yl)-2-methylpropanoic acid] |
| 1000 to 5000 | C#CCOc1cc(COc2cccc([C@H](CC)CC(=O)O)c2)ccc1-c1cc(OC)ccc1F [Compound No. 211] |
| ≥ 5000 | COC(=O)CCCCCCCCCCCCCCCCCc1cn(CCCCCOC(c2cc(COc3cccc([C@@H](CC(=O)O)C4CC4)c3)ccc2-c2cc(OC)ccc2F)C(C)(C)C)nn1 (stereo partly drawn) [Compound No. 235] |
